The record followed here is US20110269759A1, “PYRIMIDINE COMPOUNDS AS DELTA OPIOID RECEPTOR MODULATORS” (priority 2009, published 2011).

Structures are written as SMILES. Like-named read-outs stand apart in the source and are kept apart here.

One test concerns the target T1, Mu Opioid Receptor (Rattus norvegicus, UniProt P33535).
T1 construct: the forebrains were homogenized in Tris buffer in a Teflon®-glass homogenizer; from tissue; host or cells: forebrain of male Wistar rats, particulate membrane preparation
Nature of the test: Rat brain mu opioid receptor binding assay ([3H]DAMGO).

The target of a further test is T2, Delta Opioid Receptor (Rattus norvegicus, UniProt P33533).
T2 construct: the forebrains were homogenized in Tris buffer in a Teflon®-glass homogenizer; from tissue; host or cells: forebrain of male Wistar rats, particulate membrane preparation
Nature of the test: Rat brain delta opioid receptor binding assay ([3H]DPDPE or [3H]naltrindole).

Another test deals with δ-opioid receptor (Mus musculus, UniProt P32300). In words: [35S]GTPγS δ-opioid receptor functional assay (EC50, relative efficacy, % inhibition). Type of test: biochemical. Further details: NG108-15 cell membranes were purchased from Applied Cell Sciences (Rockville, Md.). On the technique in general: GTPγS resists hydrolysis and so accumulates on activated G proteins.
The mark [1] stands for this setting: rat forebrain membranes, 0.25 nM [3H]naltrindole, read-out: δ-binding (Naltrindole ligand) Ki.
Where [2] appears, read: rat forebrain membranes, ~0.8 nM [3H]DAMGO, read-out: μ-binding Ki.
The mark [3] stands for this setting: rat forebrain membranes, ~4 nM [3H]DPDPE, read-out: δ-binding (DPDPE ligand) Ki.

T2 sequence (P33533 whole entry): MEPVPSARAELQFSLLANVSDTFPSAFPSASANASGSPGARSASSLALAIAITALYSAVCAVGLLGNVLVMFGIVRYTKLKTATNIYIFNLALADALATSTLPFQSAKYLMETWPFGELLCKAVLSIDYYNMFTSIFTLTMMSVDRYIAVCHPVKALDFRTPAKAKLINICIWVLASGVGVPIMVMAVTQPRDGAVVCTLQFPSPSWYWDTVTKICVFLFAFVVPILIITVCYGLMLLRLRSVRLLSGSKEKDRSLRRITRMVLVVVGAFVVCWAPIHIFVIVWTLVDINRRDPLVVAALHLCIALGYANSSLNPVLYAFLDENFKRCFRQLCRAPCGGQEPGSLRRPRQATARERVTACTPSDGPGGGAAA
T1 sequence (P33535 whole entry): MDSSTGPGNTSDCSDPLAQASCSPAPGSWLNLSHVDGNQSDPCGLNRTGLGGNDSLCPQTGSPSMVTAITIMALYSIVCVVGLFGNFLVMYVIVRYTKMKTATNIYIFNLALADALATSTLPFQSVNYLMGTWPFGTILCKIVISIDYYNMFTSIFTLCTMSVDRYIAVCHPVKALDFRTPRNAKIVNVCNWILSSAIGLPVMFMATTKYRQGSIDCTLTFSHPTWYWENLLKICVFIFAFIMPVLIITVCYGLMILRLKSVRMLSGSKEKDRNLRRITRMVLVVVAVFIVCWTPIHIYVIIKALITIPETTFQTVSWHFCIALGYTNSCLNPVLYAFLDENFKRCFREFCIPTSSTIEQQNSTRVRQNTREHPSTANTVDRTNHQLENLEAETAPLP
Sequence of δ-opioid receptor (P32300 whole entry): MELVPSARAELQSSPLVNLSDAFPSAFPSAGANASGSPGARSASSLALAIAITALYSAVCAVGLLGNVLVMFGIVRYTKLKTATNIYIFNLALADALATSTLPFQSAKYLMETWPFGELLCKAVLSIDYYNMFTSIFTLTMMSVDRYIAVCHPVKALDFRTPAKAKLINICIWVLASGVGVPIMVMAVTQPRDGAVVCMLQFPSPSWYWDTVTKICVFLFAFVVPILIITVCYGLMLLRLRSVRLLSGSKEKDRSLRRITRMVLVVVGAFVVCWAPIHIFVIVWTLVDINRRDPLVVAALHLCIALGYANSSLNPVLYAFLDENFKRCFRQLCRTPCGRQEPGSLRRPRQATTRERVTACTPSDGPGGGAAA

With `CCN(CC)C(=O)c1ccc(Oc2cc(-c3ccccc3)ccc2NC[C@@H]2CCCN2)cc1` [Cpd 33, (S)-N,N-Diethyl-4-{4-[(pyrrolidin-2-ylmethyl)-amino]-biphenyl-3-yloxy}-benzamide], the Ki on Mu Opioid Receptor was 9300 nM; on Delta Opioid Receptor (setting [1]) it was 284 nM.

On to `CNCCN(CCNC)c1ccc(Oc2ccc(OC)cc2)cc1Oc1ccc(OC)cc1` [Cpd 64, N-[2,4-Bis-(4-methoxy-phenoxy)-phenyl]-N′-methyl-N-(2-methylamino-ethyl)-ethane-1,2-diamine], for which the figures for the Ki at Mu Opioid Receptor (setting [2]) and on Delta Opioid Receptor (setting [3]) were over 10000 nM and 1540 nM, respectively.

In the case of `COc1ccc(Oc2cc(CCc3ccccc3)ccc2NC[C@@H]2CCCN2)cc1` [Cpd 5], the Ki at Delta Opioid Receptor (setting [1]) is 239 nM.

Turning to `O=C(O)c1ccc(Oc2cc(-c3ccccc3)ccc2NC[C@@H]2CCCN2)cc1` [Cpd 31, (S)-4-{4-[(Pyrrolidin-2-ylmethyl)-amino]-biphenyl-3-yloxy}-benzoic acid], the values for the Ki at Mu Opioid Receptor (setting [2]) and on Delta Opioid Receptor (setting [1]) were over 10000 nM and 7690 nM, respectively.

Turning to `CCN(CC)C(=O)c1ccc(NC[C@@H]2CCCN2)c(Oc2ccccc2OC)c1` [Cpd 11], the Ki on Delta Opioid Receptor (setting [3]) came out at 105 nM. Besides, on δ-opioid receptor, it took 319 nM to reach a half-maximal effect (EC50).

Take `Clc1cccc(Cl)c1Oc1cc(-c2ccccc2)ccc1NC[C@@H]1CCCN1` [Cpd 18]: the Ki on Delta Opioid Receptor (setting [1]) came to 108 nM. Besides, at δ-opioid receptor, a half-maximal response (EC50) required 1040 nM and the “GTPγS δ-opioid receptor Rel Efficacy” value was 0.763. Also, at δ-opioid receptor (read-out: GTPγS δ-opioid receptor % Inh @10 μM), the inhibition at 10 µM amounted to 23.4%.

Regarding `COc1ccc(Oc2ccc(NC3CCCNC3)c(Oc3ccc(OC)cc3)c2)cc1` (racemic) [Cpd 54], the Ki at Mu Opioid Receptor was 9700 nM; on Delta Opioid Receptor (setting [3]) it was 492 nM.

`COc1ccc(Oc2ccc(NC3CCNCC3)c(Oc3ccc(OC)cc3)c2)cc1` [Cpd 56]: the figures for the Ki on Mu Opioid Receptor (setting [2]) and at Delta Opioid Receptor (setting [3]) were over 10000 nM and 1730 nM, respectively.

For the molecule `COc1ccc(Oc2cc(-c3ccccc3)ccc2NC2CCNCC2)cc1` [Cpd 23], the Ki on Mu Opioid Receptor (setting [2]) was over 10000 nM; on Delta Opioid Receptor (setting [1]), 461 nM.

Regarding `COc1ccc(CCc2ccc(NC[C@@H]3CCCN3)c(Oc3ccc(OC)cc3)c2)cc1` [Cpd 3, (S)-{2-(4-Methoxy-phenoxy)-4-[2-(4-methoxy-phenyl)-ethyl]-phenyl}-pyrrolidin-2-ylmethyl-amine], the Ki is over 10000 nM at Mu Opioid Receptor (setting [2]) and 120 nM at Delta Opioid Receptor (setting [1]).

On to `CCN(CC)C(=O)c1cccc(CCc2ccc(NC[C@@H]3CCCN3)c(Oc3ccc(OC)cc3)c2)c1` [Cpd 8, (S)-N,N-Diethyl-3-(2-{3-(4-methoxy-phenoxy)-4-[(pyrrolidin-2-ylmethyl)-amino]-phenyl}-ethyl)-benzamide], for which the Ki on Mu Opioid Receptor stood at 9000 nM; at Delta Opioid Receptor (setting [1]), 127 nM.

For `N#Cc1ccc(Oc2cc(-c3ccccc3)ccc2NC[C@@H]2CCCN2)cc1` [Cpd 12, (S)-4-{4-[(Pyrrolidin-2-ylmethyl)-amino]-biphenyl-3-yloxy}-benzonitrile], the Ki on Mu Opioid Receptor (setting [2]) was over 10000 nM; at Delta Opioid Receptor (setting [1]), 996 nM.

With `CCN(CC)C(=O)c1ccc(NC[C@@H]2CCCN2)c(Oc2ccccc2)c1` [Cpd 9, (S)-N,N-Diethyl-3-phenoxy-4-[(pyrrolidin-2-ylmethyl)-amino]-benzamide], the Ki on Mu Opioid Receptor (setting [2]) was over 10000 nM; at Delta Opioid Receptor (setting [1]), 1020 nM.

`Clc1ccc(Oc2cc(-c3ccccc3)ccc2NC[C@@H]2CCCN2)c(Cl)c1` [Cpd 22]: on Delta Opioid Receptor (setting [1]), the Ki was found to be 698 nM.

Turning to `c1ccc(Oc2cc(-c3ccccc3)ccc2NC[C@@H]2CCCN2)cc1` [Cpd 14], at Delta Opioid Receptor (setting [1]), the Ki came to 113 nM.

On to `FC(F)(F)Oc1ccc(Oc2cc(-c3ccccc3)ccc2NC[C@@H]2CCCN2)cc1` [Cpd 17], for which, at Delta Opioid Receptor (setting [1]), the Ki came out at 1470 nM.

`COc1ccc(Oc2cc(-c3cccc4ccccc34)ccc2NC[C@@H]2CCCN2)cc1` [Cpd 37]: the Ki on Delta Opioid Receptor (setting [1]) was found to be 301 nM.

For `COc1ccc(Oc2cc(CCc3cccc(F)c3)ccc2NC[C@@H]2CCCN2)cc1` [Cpd 7], the Ki at Delta Opioid Receptor (setting [1]) amounted to 229 nM.

Consider `CNCCNc1ccc(-c2ccccc2)cc1Oc1ccc(OC)cc1` [Cpd 19], for which the Ki was over 10000 nM on Mu Opioid Receptor (setting [2]) and 192 nM on Delta Opioid Receptor (setting [1]).

For the molecule `NC(=O)c1ccc(Oc2cc(-c3ccccc3)ccc2NC[C@@H]2CCCN2)cc1` [Cpd 29, (S)-4-{4-[(Pyrrolidin-2-ylmethyl)-amino]-biphenyl-3-yloxy}-benzamide], the Ki was over 10000 nM at Mu Opioid Receptor (setting [2]) and 147 nM at Delta Opioid Receptor (setting [1]).

As to `COc1ccc(Oc2cc(-c3noc(=O)[nH]3)ccc2NC[C@@H]2CCCN2)cc1` [Cpd 48, (S)-3-{3-(4-Methoxy-phenoxy)-4-[(pyrrolidin-2-ylmethyl)-amino]-phenyl}-4H-[1,2,4]oxadiazol-5-one], the Ki was determined as 9700 nM at Mu Opioid Receptor (setting [2]) and 492 nM at Delta Opioid Receptor (setting [3]).

In the case of `COc1ccc(Oc2cc(-c3ccccc3)ccc2N2CCNCC2)cc1` [Cpd 46, 1-[3-(4-Methoxy-phenoxy)biphenyl-4-yl]piperazine], the Ki on Mu Opioid Receptor (read-out: μ-binding Ki) was over 10000 nM; at Delta Opioid Receptor it was 79.7 nM.

With `COc1ccc(Oc2ccc(NC3CC4CCC(C3)N4)c(Oc3ccc(OC)cc3)c2)cc1` (stereo not drawn) [Cpd 57], the inhibitory constant (Ki) is over 10000 nM at Mu Opioid Receptor (setting [2]) and 1430 nM on Delta Opioid Receptor (setting [3]).

For the molecule `COc1ccc(Oc2ccc(N(CC3CNC3)CC3CNC3)c(Oc3ccc(OC)cc3)c2)cc1` [Cpd 59], the Ki was over 10000 nM on Mu Opioid Receptor (setting [2]) and 2280 nM on Delta Opioid Receptor (setting [3]).

`COc1ccc(Oc2cc(-c3ccc4ccccc4c3)ccc2NC[C@@H]2CCCN2)cc1` [Cpd 36, (S)-[2-(4-Methoxy-phenoxy)-4-naphthalen-2-yl-phenyl]-pyrrolidin-2-ylmethyl-amine]: the Ki at Mu Opioid Receptor (setting [2]) was over 10000 nM; at Delta Opioid Receptor (setting [1]) it was 290 nM.

Regarding `COc1cccc(Oc2cc(-c3ccccc3)ccc2NC[C@@H]2CCCN2)c1` [Cpd 15], the Ki on Delta Opioid Receptor (setting [1]) was found to be 289 nM.

Turning to `COc1ccc(Oc2cc(-c3ccccc3)ccc2N2CCN(C)CC2)cc1` [Cpd 47, 1-[3-(4-Methoxy-phenoxy)biphenyl-4-yl]-4-methyl-piperazine], the Ki at Mu Opioid Receptor (setting [2]) is over 10000 nM; at Delta Opioid Receptor (setting [1]) it was 2220 nM.

Turning to `Fc1ccc(Oc2cc(-c3ccccc3)ccc2NC[C@@H]2CCCN2)cc1` [Cpd 16], at Delta Opioid Receptor (setting [1]), the inhibition constant Ki was 419 nM.

For `COc1ccc(Oc2cc(CCc3ccc(F)cc3)ccc2NC[C@@H]2CCCN2)cc1` [Cpd 6], the Ki on Delta Opioid Receptor (setting [1]) was 684 nM.

On to `COc1ccc(Oc2cc(CCc3cccc(OC)c3)ccc2NC[C@@H]2CCCN2)cc1` [Cpd 4], for which the Ki on Delta Opioid Receptor (setting [1]) stood at 210 nM.

`COc1ccc(Oc2ccc(NC3CN4CCC3CC4)c(Oc3ccc(OC)cc3)c2)cc1` (stereo not drawn) [Cpd 60]: the Ki at Mu Opioid Receptor (setting [2]) was over 10000 nM; at Delta Opioid Receptor (setting [3]) it was 158 nM.

For the molecule `COC(=O)c1ccc(Oc2cc(-c3ccccc3)ccc2NC[C@@H]2CCCN2)cc1` [Cpd 20], at Delta Opioid Receptor (setting [1]), the Ki was 779 nM.

Regarding `COc1ccc(Oc2ccc(NC[C@@H](N)CO)c(Oc3ccc(OC)cc3)c2)cc1` [Cpd 55], the Ki on Delta Opioid Receptor (setting [3]) is 1370 nM.

As to `COc1ccc(Oc2cc(-c3cncc(OC)c3)ccc2NC[C@@H]2C[C@@H](F)CN2)cc1` [Cpd 27], the Ki on Delta Opioid Receptor (setting [1]) worked out at 1000 nM.

With `COc1ccc(Oc2cc(-c3ccoc3)ccc2NC[C@@H]2CCCN2)cc1` [Cpd 40], the Ki on Delta Opioid Receptor (setting [1]) was 205 nM.

As for `COC(=O)c1cccc(Oc2cc(-c3ccccc3)ccc2NC[C@@H]2CCCN2)c1` [Cpd 21], the Ki at Delta Opioid Receptor (setting [1]) came out at 887 nM.

On to `N#Cc1cccc(Oc2cc(-c3ccccc3)ccc2NC[C@@H]2CCCN2)c1` [Cpd 13], for which, at Delta Opioid Receptor (setting [1]), the Ki was 402 nM.

With `COc1ccc(Oc2cc(-c3ccsc3)ccc2NC[C@@H]2CCCN2)cc1` [Cpd 41], the Ki on Delta Opioid Receptor (setting [1]) was found to be 290 nM.

Take `CCN(CC)C(=O)c1cccc(Oc2cc(-c3ccccc3)ccc2NC[C@@H]2CCCN2)c1` [Cpd 34]: at Delta Opioid Receptor (setting [1]), the Ki was determined as 310 nM.

`O=C(O)c1cccc(Oc2cc(-c3ccccc3)ccc2NC[C@@H]2CCCN2)c1` [Cpd 32]: the Ki on Delta Opioid Receptor (setting [1]) turned out to be 2670 nM.

As usually defined, the Ki is a dissociation constant, usually derived from enzyme kinetics or from competition with a known ligand. By EC50 is commonly meant the concentration that produces a half-maximal response. Lower therefore signals a more potent agent.
